Data: patent US10294226B2, “Small molecule inhibitors of the JAK family of kinases” (Janssen Pharmaceutica NV, priority 2016, dated 2019)
≈ marks a conversion by molar mass, not a printed value.

Tests used:
[1] = physchem; settings: pH 6.5, fassif, thermodynamic from solid
[2] = target: JAK1-JH1JH2 (Homo sapiens (Human), UniProt P23458); assay: Enzymatic inhibition assay (HTMS); type: biochemical; settings: 12.5 μM ATP; read-out: JAK1_JH1JH2 IC50
Text: (§1) JAK1-JH1JH2 (574-1154 with a His-GST Tag and a C-terminal tev (ENLYFQ-G) cleavage site), JAK3-JH1JH2 (512-1124 with a GST Tag and a C-terminal tev (ENLYFQ-G) cleavage site), and Tyk2-JH1JH2 (8H_tev_580-1182-C936A-C1142A with a C-terminal tev (ENLYFQ-G) cleavage site) were purified internally. […] LC/MS grade water and acetonitrile (ACN), were purchased from HoneyWell, Burdick & Jackson (Muskegon, Mich., USA). Dimethylsulfoxide 99.8% (DMSO) and trifluoroacetic acid 99.5% (TFA) were purchased from EMD Chemical (Gibbstown, N.J., USA). Adenosine triphosphate (ATP), 4-morpholinepropanesulfonic acid (MOPS), magnesium chloride (MgCl2), ethylenediaminetetraacetic acid (EDTA), dithiothreitol (DTT), formic acid>95% (FA) and Tween-20 were purchased from Sigma (St Louis, Mo., USA). 384-well polypropylene plates, Cat#781280 were purchased from Greiner (Monroe, N.C.), RapidFire™ cartridge A C4 Column (Agilent Technologies, Santa Clara, Calif.).
(§2) The HTMS experiments were performed in positive ionization mode on a RapidFire 300 instrument (Agilent Technologies, Santa Clara, Calif.), coupled with an ABSiex QTrap 4000 system with an Electrospray Ionization source (RF-MS) (Concord, ON, Canada). […] The entire system was operated using the RapidFire software interfaced with Analyst software for the mass spectrometer.
(§3) 11-point dosing series were made for each compound by serially diluting 1:3 or 1:4 in DMSO, with point 12 being a DMSO control. From the serial dilution plates, sample was transferred to a 384 wells assay plate (#781280, Greiner, Monroe, N.C.) using Labcyte Echo (Sunnyvale, Calif.), or Biosero ATS (San Diego, Calif.). The compounds were tested in duplicate. Column 12 was used for positive controls, and column 24 contained negative controls with no enzyme added. A compound from our internal collection, with inhibitory activity for JAK isoforms, was used as a reference compound. The final concentration of DMSO was ≤0.25% in a 20 μL reaction. The enzyme reaction was initiated by the addition of 10 μL of enzyme and ATP mixture to 10 μL of substrate solution prepared in reaction buffer (50 mM MOPS pH 7.5, 10 mM MgCl2, 1 mM EDTA, 2 mM DTT, 0.002% Tween-20). The Tyk2 enzyme was pre-incubated with 2 mM ATP for 30 min prior to the reaction initiation. Immediately after the addition of the enzyme to the reaction mixture, the plate was centrifuged at 1000 rpm for 1 minute and incubated at 25° C. for 45 minutes for JAK3 and 90 minutes for JAK1, JAK2 and Tyk2. The reaction was quenched by the addition of 20 μL of 0.5% TFA containing 0.15 μM of internal standard peptide using Multidrop Combi reagent dispenser (Thermo Scientific, Waltham, Mass.). […] After the quench, the assay plate was centrifuged at 3000 rpm for 3 minutes and sealed with pierceable aluminum foil (Cat#06644-001, Agilent) using a PlateLoc (Agilent Technologies, Santa Clara, Calif.). The plates then were transferred on to the RapidFire for the MS analysis. Compound inhibition was assessed by a decrease of the phosphorylated product levels in sample wells compared to the non-inhibited enzyme reaction.
(§4) The sample analysis on the RapidFire was performed using a mobile phase A1 consisting of Water/TFA/FA (100:0.01:0.1, v/v/v), a mobile phase B1 consisting of ACN/Water/TFA/FA (80:20:0.01:0.1, v/v/v). […] The samples were aspirated directly from the 384-well assay plate and delivered onto RF-MS microscale solid-phase C4 extraction cartridge (Type A). The undesired component such as salt, cofactor, detergent and large protein were washed out and the retained analytes (substrate, product and IS) were coeluted directly onto the AB Siex Qtrap 4000 system.

[3] = target: JAK3-JH1JH2 (Homo sapiens (Human), UniProt P52333); assay: Enzymatic inhibition assay (HTMS); type: biochemical; settings: 150 μM ATP; read-out: JAK3_I_JH1JH2 IC50
Text: as §1, §2, §3, §4

[4] = target: Tyk2-JH1JH2 (Homo sapiens (Human), UniProt P29597, C1142A/C936A); assay: Enzymatic inhibition assay (HTMS); type: biochemical; settings: 50 μM ATP; read-out: Tyk2_I_JH1JH2 IC50
Text: as §1, §2, §3, §4

[5] = target: JAK2-JH1JH2 (Homo sapiens (Human), UniProt O60674); assay: Enzymatic inhibition assay (HTMS); type: biochemical; settings: 30 μM ATP; read-out: JAK2_I_JH1JH2 IC50
Text: as §1, §2, §3, §4

[6] = system: MDCK-MDR1 cell line; assay: MDCK-MDR1 permeability assay; type: in vitro ADME; settings: for MDCK-MDR1 Papp(A-B): without elacridar; for MDCK-MDR1 Papp(B-A): basolateral to apical; for Papp(B-A)/Papp(A-B) efflux ratio: MDCK-MDR1, @ 5 μM
Experimental: Permeability measurements were conducted according to the Cyprotex protocol using the MDCK-MDR1 cell line obtained from the NIH (Rockville, Md., USA). […] The cells in this assay form a cohesive sheet of a single cell layer filing the surface area of the culture dish, also known as a confluent monolayer, and on day four the test compound was added to the apical side of the membrane and the transport of the compound across the monolayer was monitored over a time period of 60 min.
Test compounds were dissolved in DMSO at a concentration of 10 mM. The dosing solutions were prepared by diluting test compound with assay buffer (Hanks Balanced Salt Solution), pH 7.4, at a final concentration of 5 μM. For assessment of apical to basolateral (“A-B”) permeability, buffer was removed from the apical compartment and replaced with test compound dosing solution with or without the permeability glycoprotein (“PgP”, “P-gP”, “Pgp” or “P-gp”) inhibitor elacridar (2 μM). For assessment of basolateral to apical (“B-A”) permeability, buffer was removed from the companion plate and replaced with test compound dosing solution. Incubations were carried out in duplicate at 37° C. in an atmosphere of 5% CO2 with a relative humidity of 95%. […] After incubation for 60 minutes, apical and basolateral samples were diluted and test compounds quantified by LC/MS/MS using an 8-point calibration in the range 0.0039 to 3 μM with appropriate dilution of the samples (receiver dilution factor=1; donor and C0 dilution factor=10). The permeability coefficient (Papp) for each compound was calculated from the following equation: Papp=(dQ/dt)/(C0×S), where dQ/dt is the rate of permeation of the drug across the cells, C0 is the donor compartment concentration at time zero, and S is the area of the cell monolayer.
The percent recovery was measured for all incubation conditions.
Papp(A-B) gives an indication of permeation extent across the cells in this assay, which is envisaged to model the transcellular transport across Pgp-expressing cells, such as Pgp-expressing gastrointestinal tract cells.
The integrity of each monolayer was monitored by examining the permeation of lucifer yellow by fluorimetric analysis.

[7] = In vivo intracolonic (i.c.) dosing, plasma and colon concentrations (Protocol 3); design: species or system female C57BL/6 mice; key to Plasma Concentration After i.c. Dosing, Mean: ^: Mean was not calculated as the values for all three mice were below the lower limit of quantitation; settings: mice; for Plasma Concentration After i.c. Dosing, Mean: 5 mg/kg i.c.
Text: Plasma and colon concentration results were obtained by following Protocol 1 using venipuncture of dorsal metatarsal vein bleed for Compounds (B), (C), and Examples 6 and 11. Plasma and colon concentration results were obtained by following Protocol 2 using retro-orbital bleed for Compounds (A), and Examples 1, and 3-5 and Protocol 2 using venipuncture of the dorsal metatarsal vein for Examples 2, 7-10, and 12. Plasma and colon concentration results were obtained by following Protocol 3 for Examples 1, 3 and 4. These protocols are described below under the heading In vivo Studies.
Intracolonic (IC) dose group: Following anesthesia with isoflurane by inhalation, three non-fasted female C57BL/6 mice were administered the compound intracolonically through a small incision in the abdominal wall using a syringe and needle at a dose of 5 mg/kg as a solution in 20% HPβCD at a dose volume of 1 mL/kg. Blood samples were collected at 0.5, 2, and 4 h post dose via retro-orbital bleed. Blood samples were collected into tubes containing anticoagulant (Heparin-Na) and placed on wet ice. The plasma fraction was separated by centrifugation and frozen at −20° C. for up to 4 h and −80° C. after 4 h unless analyzed shortly after sample collection. Colon samples were collected at 4 h post dose. From 2 cm below the cecum, a 4-cm sample of the colon was dissected, cut open on the longitudinal axis, and the solid contents removed by flushing with 2 mL of saline. The colon was further washed by putting it in 5 mL of saline and shaken for 5 seconds. The colon sample was then patted dry, weighed, and homogenized as 1 part tissue (g) to 4 parts HPLC grade water (mL). Concentrations of the compound in plasma and colon homogenate were determined using a qualified liquid chromatography-triple quadrupole mass spectrometry (LC-MS/MS) method. This protocol was used to evaluate IC dosing of the following test compounds: Examples 1, 3, and 4.

Sequence of JAK1-JH1JH2 (P23458 574-1154): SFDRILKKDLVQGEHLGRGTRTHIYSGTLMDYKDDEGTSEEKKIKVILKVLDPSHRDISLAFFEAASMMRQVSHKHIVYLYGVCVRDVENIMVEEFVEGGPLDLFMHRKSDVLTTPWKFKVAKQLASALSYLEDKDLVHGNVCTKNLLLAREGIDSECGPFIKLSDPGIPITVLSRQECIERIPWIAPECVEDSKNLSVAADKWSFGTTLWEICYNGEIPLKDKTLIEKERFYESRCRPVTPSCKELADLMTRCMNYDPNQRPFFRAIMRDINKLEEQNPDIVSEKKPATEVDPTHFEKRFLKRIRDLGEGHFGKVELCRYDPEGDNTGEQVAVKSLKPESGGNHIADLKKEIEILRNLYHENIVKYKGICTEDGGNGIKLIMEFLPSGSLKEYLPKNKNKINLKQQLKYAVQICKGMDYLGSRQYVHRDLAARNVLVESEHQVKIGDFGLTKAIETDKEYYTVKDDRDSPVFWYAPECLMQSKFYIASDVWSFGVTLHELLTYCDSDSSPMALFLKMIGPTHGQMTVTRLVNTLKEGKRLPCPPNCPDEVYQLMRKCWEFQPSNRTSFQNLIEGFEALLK
Sequence of JAK2-JH1JH2 (O60674 532-1132): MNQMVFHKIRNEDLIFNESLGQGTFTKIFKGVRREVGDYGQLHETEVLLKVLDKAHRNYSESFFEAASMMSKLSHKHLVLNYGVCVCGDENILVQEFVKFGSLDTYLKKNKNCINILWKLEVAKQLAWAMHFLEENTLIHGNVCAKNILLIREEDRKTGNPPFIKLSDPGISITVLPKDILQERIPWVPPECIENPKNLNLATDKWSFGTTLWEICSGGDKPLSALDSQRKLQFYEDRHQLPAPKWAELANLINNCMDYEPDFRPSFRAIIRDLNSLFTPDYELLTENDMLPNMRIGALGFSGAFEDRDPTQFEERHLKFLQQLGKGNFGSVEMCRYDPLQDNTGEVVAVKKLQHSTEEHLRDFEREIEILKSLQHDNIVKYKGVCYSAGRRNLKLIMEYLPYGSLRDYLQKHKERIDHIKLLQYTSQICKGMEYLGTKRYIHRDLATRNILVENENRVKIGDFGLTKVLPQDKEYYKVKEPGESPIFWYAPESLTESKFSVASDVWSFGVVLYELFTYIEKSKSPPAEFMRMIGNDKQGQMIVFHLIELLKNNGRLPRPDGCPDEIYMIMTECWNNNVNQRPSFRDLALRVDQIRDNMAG
Sequence of Tyk2-JH1JH2 (P29597 580-1182 C936A/C1142A): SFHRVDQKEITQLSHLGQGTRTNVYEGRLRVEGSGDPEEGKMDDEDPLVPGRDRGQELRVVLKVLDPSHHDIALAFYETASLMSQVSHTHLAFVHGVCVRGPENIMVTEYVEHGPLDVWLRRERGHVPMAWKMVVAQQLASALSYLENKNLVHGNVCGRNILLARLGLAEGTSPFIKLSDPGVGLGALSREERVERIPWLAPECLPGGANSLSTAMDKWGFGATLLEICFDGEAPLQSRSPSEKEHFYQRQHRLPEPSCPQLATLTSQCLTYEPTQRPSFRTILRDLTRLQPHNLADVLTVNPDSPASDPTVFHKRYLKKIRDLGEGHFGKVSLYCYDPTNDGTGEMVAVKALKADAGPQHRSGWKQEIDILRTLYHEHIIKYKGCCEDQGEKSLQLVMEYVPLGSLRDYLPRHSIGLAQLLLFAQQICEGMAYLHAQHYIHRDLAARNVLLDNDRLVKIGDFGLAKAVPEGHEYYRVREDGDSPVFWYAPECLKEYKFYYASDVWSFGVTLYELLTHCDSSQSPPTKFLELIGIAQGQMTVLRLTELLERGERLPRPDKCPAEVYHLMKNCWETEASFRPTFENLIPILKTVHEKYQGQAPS
Sequence of JAK3-JH1JH2 (P52333 512-1124): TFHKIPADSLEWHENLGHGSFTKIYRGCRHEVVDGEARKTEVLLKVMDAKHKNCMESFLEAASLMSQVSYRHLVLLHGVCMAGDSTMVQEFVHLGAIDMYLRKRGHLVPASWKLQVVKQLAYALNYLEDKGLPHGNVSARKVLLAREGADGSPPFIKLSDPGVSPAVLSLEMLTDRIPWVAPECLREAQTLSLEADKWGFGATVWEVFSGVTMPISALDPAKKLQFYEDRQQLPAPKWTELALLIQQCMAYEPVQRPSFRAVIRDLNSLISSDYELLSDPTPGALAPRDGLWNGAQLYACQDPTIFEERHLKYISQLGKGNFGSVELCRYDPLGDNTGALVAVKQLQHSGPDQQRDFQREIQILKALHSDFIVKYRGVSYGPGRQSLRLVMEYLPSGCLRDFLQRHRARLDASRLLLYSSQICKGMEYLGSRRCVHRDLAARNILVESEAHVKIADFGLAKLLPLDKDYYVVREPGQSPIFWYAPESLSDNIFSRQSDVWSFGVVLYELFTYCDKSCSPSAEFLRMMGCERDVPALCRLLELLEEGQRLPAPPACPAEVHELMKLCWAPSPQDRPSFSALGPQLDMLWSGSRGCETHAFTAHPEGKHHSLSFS

Compound | solubility [1] [µM] | IC50 [2] [nM] | IC50 [3] [nM] | IC50 [4] [nM] | IC50 [5] [nM] | MDCK-MDR1 Papp(A-B) ([6]; @ 5 μM, apical to basolateral) | MDCK-MDR1 Papp(B-A) ([6]; @ 5 μM) | Papp(B-A)/Papp(A-B) efflux ratio [6] | Plasma Concentration After i.c. Dosing, Mean ([7]; Time = 2 h) | Plasma Concentration After i.c. Dosing, Mean ([7]; Time = 4 h) | systemic exposure after i.c. dosing [7] | MDCK-MDR1 P^eapp(A-B) ([6]; @ 5 μM, apical to basolateral, with P-gp inhibitor elacridar (2 μM))
CC(C)(O)CNC(=O)Cc1nc2cnc3[nH]ccc3c2n1[C@H]1CC[C@H](CC#N)CC1 [Ex. 1, 2-(1-((1r,4r)-4-(Cyanomethyl)cyclohexyl)-1,6-dihydroimidazo[4,5-d]pyrrolo[2,3-b]pyridin-2-yl)-N-(2-hydroxy-2-methylpropyl)acetamide] | 387 (≈ 158 µg/mL) | 0.4 | 92.2 | 7.4 | 8.6 | 0.4 10^−6 cm/sec | 1.1 10^−6 cm/sec | 3.3 | ^ | ^ | low systemic exposures | –
N#CC[C@H]1CC[C@H](n2c(-c3c[nH]cn3)nc3cnc4[nH]ccc4c32)CC1 [Ex. 2, 2-((1r,4r)-4-(2-(1H-Imidazol-4-yl)imidazo[4,5-d]pyrrolo[2,3-b]pyridin-1(6H)-yl)cyclohexyl)acetonitrile] | – | – | – | 1.5 | – | – | – | – | – | – | – | –
N#CC[C@H]1CC[C@H](n2c(CC(=O)NCC3CC3)nc3cnc4[nH]ccc4c32)CC1 [Ex. 3, 2-(1-((1r,4r)-4-(Cyanomethyl)cyclohexyl)-1,6-dihydroimidazo[4,5-d]pyrrolo[2,3-b]pyridin-2-yl)-N-(cyclopropylmethyl)acetamide] | – | 0.2 | 82.8 | 11.6 | 6.2 | < 0.5 10^−6 cm/sec | 16 10^−6 cm/sec | > 33 | ^ | ^ | low systemic exposures | –
N#CCCNC(=O)Cc1nc2cnc3[nH]ccc3c2n1[C@H]1CC[C@H](CC#N)CC1 [Ex. 4, N-(2-Cyanoethyl)-2-(1-((1r,4r)-4-(cyanomethyl)cyclohexyl)-1,6-dihydroimidazo[4,5-d]pyrrolo[2,3-b]pyridin-2-yl)acetamide] | – | 0.1 | 96.2 | 2.2 | 6.6 | – | – | – | – | ^ | low systemic exposures | –
N#CC[C@H]1CC[C@H](n2c(CC(=O)NC3CCOCC3)nc3cnc4[nH]ccc4c32)CC1 [Ex. 5, 2-(1-((1r,4r)-4-(Cyanomethyl)cyclohexyl)-1,6-dihydroimidazo[4,5-d]pyrrolo[2,3-b]pyridin-2-yl)-N-(tetrahydro-2H-pyran-4-yl)acetamide] | 198 (≈ 83.3 µg/mL) | 0.3 | 23.1 | 4.1 | 2.1 | < 0.5 10^−6 cm/sec | 2.1 10^−6 cm/sec | > 4.5 | – | – | – | 0.5 10^−6 cm/sec
N#CC[C@H]1CC[C@H](n2c(CC(=O)NCC3CCOCC3)nc3cnc4[nH]ccc4c32)CC1 [Ex. 6, 2-(1-((1r,4r)-4-(Cyanomethyl)cyclohexyl)-1,6-dihydroimidazo[4,5-d]pyrrolo[2,3-b]pyridin-2-yl)-N-((tetrahydro-2H-pyran-4-yl)methyl)acetamide] | – | 0.1 | 28.2 | 1.1 | 1.4 | – | 2.6 10^−6 cm/sec | > 8.7 | – | – | – | –
CC(C)(C#N)CNC(=O)Cc1nc2cnc3[nH]ccc3c2n1[C@H]1CC[C@H](CC#N)CC1 [Ex. 7, N-(2-Cyano-2-methylpropyl)-2-(1-((1r,4r)-4-(cyanomethyl)cyclohexyl)-1,6-dihydroimidazo[4,5-d]pyrrolo[2,3-b]pyridin-2-yl)acetamide] | 81 (≈ 33.8 µg/mL) | 0.2 | 98.4 | 4.8 | 5.6 | – | – | – | – | – | – | –
N#CC[C@H]1CC[C@H](n2c(CC(=O)NCC3(O)CCC3)nc3cnc4[nH]ccc4c32)CC1 [Ex. 8, 2-(1-((1r,4r)-4-(Cyanomethyl)cyclohexyl)-1,6-dihydroimidazo[4,5-d]pyrrolo[2,3-b]pyridin-2-yl)-N-((1-hydroxycyclobutyl)methyl)acetamide] | – | 0.4 | 75.6 | 6.6 | 7 | – | – | – | – | – | – | –
N#CCC12CCC(NC(=O)Cc3nc4cnc5[nH]ccc5c4n3[C@H]3CC[C@H](CC#N)CC3)(CC1)C2 [Ex. 10, N-(4-(Cyanomethyl)bicyclo[2.2.1]heptan-1-yl)-2-(1-((1r, 4r)-4-(cyanomethyl)cyclohexyl)-1,6-dihydroimidazo[4,5-d]pyrrolo[2,3-b]pyridin-2-yl)acetamide] | 359 (≈ 169 µg/mL) | 1 | 87.5 | 9 | 6.5 | – | – | – | – | – | – | –
N#CC[C@H]1CC[C@H](n2c(CC(=O)NCC3(O)CC3)nc3cnc4[nH]ccc4c32)CC1 [Ex. 12, 2-(1-((1r,4r)-4-(Cyanomethyl)cyclohexyl)-1,6-dihydroimidazo[4,5-d]pyrrolo[2,3-b]pyridin-2-yl)-N-((1-hydroxycyclopropyl)methyl)acetamide] | – | 0.9 | 101 | 8.7 | 9.4 | – | – | – | – | – | – | –
